# Laboratory results: the Kinase Knowledgebase extract (Sharma et al. 2016)
# Target: MAPK14 (human) (UniProt Q16539)
# Assay: In vitro Inhibition of TNF-alpha Production in PBMC Cells
# MAPK14 (human), sequence (Q16539 whole entry, looked up): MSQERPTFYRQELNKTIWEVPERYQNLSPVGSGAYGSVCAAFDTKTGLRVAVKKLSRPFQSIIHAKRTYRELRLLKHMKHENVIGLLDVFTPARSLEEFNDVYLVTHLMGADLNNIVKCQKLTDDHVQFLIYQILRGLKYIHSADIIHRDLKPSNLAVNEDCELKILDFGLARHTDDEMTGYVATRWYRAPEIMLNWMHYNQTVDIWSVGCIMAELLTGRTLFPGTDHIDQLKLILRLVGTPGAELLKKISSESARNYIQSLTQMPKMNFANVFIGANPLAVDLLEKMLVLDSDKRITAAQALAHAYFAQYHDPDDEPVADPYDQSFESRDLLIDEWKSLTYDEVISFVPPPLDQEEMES
row,SMILES,IC50 [nM]
1,Fc1ccc(-c2c[nH]c(CNCc3ccncc3)c2-c2ccncc2)cc1,74
2,Fc1ccc(-c2cn3c(c2-c2ccncc2)CN(Cc2ccccc2)CC3)cc1,11
3,COC(=O)c1c(-c2ccc(F)cc2)c(-c2ccncc2)c(N2CCN(CC3CCCCC3)CC2)n1C,573
4,COC(=O)c1c(-c2ccc(F)cc2)c(-c2ccncc2)c(N2CCN(C(=O)OC(C)(C)C)CC2)n1C,4260
5,CCn1cc(-c2ccncc2)c(-c2ccc(F)cc2)c1C(=O)OC,108
6,CCOC(=O)c1c(-c2ccc(F)cc2)c(-c2ccncc2)c(N2CCNCC2)n1C,16
7,COC(=O)C1Cn2cc(-c3ccncc3)c(-c3ccc(F)cc3)c2C1=O (stereo not drawn),29
8,CCCN1CCN(c2c(-c3ccncc3)c(-c3ccc(F)cc3)c(C(=O)OC)n2C)CC1,901
9,COC(=O)c1c(-c2ccc(F)cc2)c(-c2ccncc2)c(C2=CCNCC2)n1C,72
10,COC(=O)c1c(-c2ccc(F)cc2)c(-c2ccncc2)c(N(C)CCN2CCSCC2)n1C,183
11,COC(=O)c1c(-c2ccncc2)c(-c2ccc(F)cc2)cn1C,55
12,CC(=O)c1c(-c2ccc(F)cc2)c(-c2ccncc2)c(N2CCN(C)CC2)n1C,370
13,COC(=O)c1c(-c2ccc(F)cc2)c(-c2ccncc2)c(NCCN2CCCC2)n1CCN1CCOCC1,969
14,O=C1CCCn2c(NCCN3CCOCC3)c(-c3ccncc3)c(-c3ccc(F)cc3)c21,2560
15,O=C1CCn2cc(-c3ccncc3)c(-c3ccc(F)cc3)c21,138
16,CON(C)C(=O)c1c(-c2ccc(F)cc2)c(-c2ccncc2)cn1C,5840
17,COC(=O)c1c(-c2cccc(F)c2)c(-c2ccncc2)cn1C,64

row,SMILES,IC50 [nM]
1,CNC(=O)c1c(-c2ccc(F)cc2)c(-c2ccncc2)cn1C,1480
2,C[C@H](Nc1nccc(-c2c[nH]cc2-c2ccc(F)cc2)n1)c1ccccc1,3
3,COC(=O)c1c(-c2ccc(F)cc2)c(-c2ccncc2)c(NCCN2CCSCC2)n1C,69
4,CN(C)C(=O)c1c(-c2ccc(F)cc2)c(-c2ccncc2)c(N2CCNCC2)n1C,120
5,Cn1cc(-c2ccncc2)c(-c2ccc(F)cc2)c1C#N,171
6,COC(=O)c1c(-c2ccc(F)cc2)c(-c2ccncc2)c(NC2CCN(Cc3ccccc3)CC2)n1C,1310
7,CCOC(=O)c1c(-c2ccc(Br)cc2)c(-c2ccncc2)cn1C,211
8,CCCc1c(-c2ccnc(N[C@@H](C)COC)n2)c(-c2ccc(F)cc2)cn1C(=O)OC(C)(C)C,50
9,CC(O)c1c(-c2ccc(F)cc2)c(-c2ccncc2)cn1C (stereo not drawn),1450
10,COC(=O)CCCn1c(NCCN2CCOCC2)c(-c2ccncc2)c(-c2ccc(F)cc2)c1C(=O)OC,29
11,CCOC(=O)c1[nH]cc(-c2ccc(F)cc2)c1-c1ccncc1,145
12,CN(CCN1CCOCC1)c1c(-c2ccncc2)c(-c2ccc(F)cc2)cn1C,117
13,N#Cc1[nH]cc(-c2ccncc2)c1-c1ccc(F)cc1,47
14,COC(=O)c1c(-c2ccc(F)cc2)c(-c2ccncc2)cn1CCN1CCOCC1,10000
15,Fc1ccc(-c2c[nH]c(CNCc3ccccc3)c2-c2ccncc2)cc1,6
16,COC(=O)c1c(-c2ccc(F)cc2)c(-c2ccncc2)c(N(C)CCN2CCOCC2)n1C,38
17,COC(=O)c1c(-c2ccc(F)cc2)c(-c2ccncc2)c(NCCNC(=O)OC(C)(C)C)n1C,1640

# More lines, now with the values ahead:
row,IC50 [nM],SMILES
1,10,CCCc1[nH]cc(-c2ccc(F)cc2)c1-c1ccnc(N[C@@H](C)c2ccccc2)n1
2,10000,COC(=O)c1c(-c2ccncc2)c(-c2ccc(F)cc2)c(NCCN2CCOCC2)n1C
3,660,Cn1c(C(=O)c2ccccc2)c(-c2ccc(F)cc2)c(-c2ccncc2)c1N1CCNCC1
4,148,OCCNCc1[nH]cc(-c2ccc(F)cc2)c1-c1ccncc1
5,50,COC(=O)c1c(-c2ccc(F)cc2)c(-c2ccncc2)c(NCCN2CCOCC2)n1C
6,42,COC(=O)c1c(-c2ccc(F)cc2)c(-c2ccncc2)c(NCc2ccc(OC)cc2)n1C
7,1660,COC(=O)c1c(-c2ccc(F)cc2)c(-c2ccncc2)c(N2CCC(NC(=O)OC(C)(C)C)C2)n1C (stereo not drawn)
8,180,COC(=O)c1c(-c2ccncc2)c(-c2ccc(F)cc2)c(Br)n1C
9,21,CCOC(=O)c1c(-c2cccc(C(F)(F)F)c2)c(-c2ccncc2)c(N2CCNCC2)n1C
10,186,CCOC(=O)c1c(-c2ccc(F)cc2)c(-c2ccncc2)c(CCCO)n1C
11,15,Cn1cc(-c2ccc(F)cc2)c(-c2ccncc2)c1N1CCNCC1
12,23,COC(=O)c1c(-c2ccc(F)cc2)c(-c2ccncc2)cn1C(=O)OC
13,149,CCOC(=O)c1[nH]cc(-c2ccncc2)c1-c1ccccc1
14,18,Cn1cc(-c2ccncc2)c(-c2ccc(F)cc2)c1-c1nnco1
15,57,COC(=O)c1c(-c2ccc(F)cc2)c(-c2ccncc2)c(Nc2cccnc2)n1C
16,105,CCn1c(C(=O)OC)c(-c2ccc(F)cc2)c(-c2ccncc2)c1N(C)CCN1CCOCC1
17,208,COC(=O)c1c(-c2ccc(F)cc2)c(-c2ccncc2)c2n1CCC2C (stereo not drawn)
18,150,O=C1CCCn2cc(-c3ccncc3)c(-c3ccc(F)cc3)c21
19,5280,COC(=O)CCn1c(C#CCCO)c(-c2ccncc2)c(-c2ccc(F)cc2)c1C(=O)OC
20,1030,Cn1cc(-c2ccncc2)c(-c2ccc(F)cc2)c1-c1ncc(-c2ccccc2)o1
21,597,CC(=O)c1c(-c2ccc(F)cc2)c(-c2ccncc2)cn1C
22,3510,COC(=O)c1c(-c2ccncc2)c(-c2ccc(F)cc2)c(N(C)CCN2CCOCC2)n1C
23,351,Cn1c(C#N)c(-c2ccc(F)cc2)c(-c2ccncc2)c1NCCN1CCOCC1
24,1390,COC(=O)c1c(-c2ccc(F)cc2)c(-c2ccncc2)c(NCCN2CCCC2)n1C
25,7750,CCN1CCCC1CNc1c(-c2ccncc2)c(-c2ccc(F)cc2)c(C(=O)OC)n1C (stereo not drawn)
26,692,COC(=O)c1c(-c2ccc(F)cc2)c(-c2ccncc2)cn1CCO
27,145,COC(=O)c1c(-c2ccc(F)cc2)c(-c2ccncc2)c(NCCc2ccncc2)n1C
28,21,COC(=O)c1c(-c2ccc(F)cc2)c(-c2ccncc2)c(Nc2cccc(NC(C)=O)c2)n1C
29,1690,COC(=O)c1c(-c2ccc(F)cc2)c(-c2ccncc2)c(NCCNC(C)=O)n1C
